Data reported in article PMC3541233 (PLoS ONE, 2013).

Target: T1, AmPDH (pyranose dehydrogenase, PDH) (Macropsalliota meleagris, UniProt Q3L245)
T1 construct: gene pdh1; for crystals deglycosylated with alpha-mannosidase (577 residues)
Assay: anaerobic reduction of enzyme FAD, absorption spectra
Type: biochemical
Details: 20 µM oxidized enzyme, 20 µM substrate, 100 mM NaH2PO4 pH 7.5, 25 °C; C2 accessible

T1 sequence (Q3L245 26-602): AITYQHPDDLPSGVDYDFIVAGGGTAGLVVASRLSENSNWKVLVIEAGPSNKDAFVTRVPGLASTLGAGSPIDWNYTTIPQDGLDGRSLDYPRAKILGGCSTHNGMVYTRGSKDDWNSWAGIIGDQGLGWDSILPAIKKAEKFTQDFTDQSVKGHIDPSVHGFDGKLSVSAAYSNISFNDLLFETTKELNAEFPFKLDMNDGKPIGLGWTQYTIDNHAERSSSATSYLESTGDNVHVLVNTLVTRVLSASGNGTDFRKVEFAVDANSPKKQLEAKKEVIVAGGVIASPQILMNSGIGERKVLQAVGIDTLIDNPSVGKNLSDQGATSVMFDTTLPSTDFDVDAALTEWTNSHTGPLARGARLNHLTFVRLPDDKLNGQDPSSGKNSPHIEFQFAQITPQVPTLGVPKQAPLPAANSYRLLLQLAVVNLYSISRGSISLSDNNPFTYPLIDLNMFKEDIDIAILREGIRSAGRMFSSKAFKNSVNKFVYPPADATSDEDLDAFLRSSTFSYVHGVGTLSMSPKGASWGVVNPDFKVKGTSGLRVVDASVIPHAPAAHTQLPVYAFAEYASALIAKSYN

SMILES: OC[C@H]1OC(O)[C@H](O)[C@@H](F)[C@@H]1O (stereo partly shown)
- anaerobic reduction of enzyme FAD, absorption spectra: showing that AmPDH was rapidly reduced, presumably by a hydride moiety at glucose C2
